Publication PMC11720011, “Single Disulfide Bond in Host Defense Thanatin Analog Peptides: Antimicrobial Activity, Atomic-Resolution Structures and Target Interactions” (International Journal of Molecular Sciences, 2024)
In brackets after ≈: the same amount, converted by molar mass. Residues, ends and D or L forms follow the SMILES beside them.

T1: LptAm, truncated functional deletion variant of the periplasmic LPS transport protein LptA of E. coli (E. coli, UniProt P0ADV1 28-159)
T1 construct: LptA of E. coli, residues 28-159 (LptAm); no removal of the His tag is told; also called His-tagged LptAm; source: E. coli BL21, purified (Ni-NTA, size-exclusion chromatography)
T1 sequence (looked up): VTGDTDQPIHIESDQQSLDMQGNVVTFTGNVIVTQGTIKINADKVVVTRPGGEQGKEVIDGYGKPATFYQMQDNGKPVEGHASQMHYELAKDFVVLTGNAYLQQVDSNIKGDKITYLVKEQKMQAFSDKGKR

B1: VF16QK, disulfide-bonded 16-residue thanatin analog peptide (peptide)
peptide: VPIIYCNRRTKKCKRF
HELM: PEPTIDE1{V.P.I.I.Y.C.N.R.R.T.[dK].K.C.K.R.F.[am]}$PEPTIDE1,PEPTIDE1,6:R3-13:R3$$$V2.0; N-terminus assumed
SMILES: CC[C@H](C)[C@H](NC(=O)[C@@H](NC(=O)[C@@H]1CCCN1C(=O)[C@@H](N)C(C)C)[C@@H](C)CC)C(=O)N[C@@H](Cc1ccc(O)cc1)C(=O)N[C@H]1CSSC[C@@H](C(=O)N[C@@H](CCCCN)C(=O)N[C@@H](CCCNC(=N)N)C(=O)N[C@@H](Cc2ccccc2)C(N)=O)NC(=O)[C@H](CCCCN)NC(=O)[C@@H](CCCCN)NC(=O)[C@H]([C@@H](C)O)NC(=O)[C@H](CCCNC(=N)N)NC(=O)[C@H](CCCNC(=N)N)NC(=O)[C@H](CC(N)=O)NC1=O
notes: Analog of thanatin of Podisus maculiventris (21 residues) without its five N-terminal residues; also called VK16QK; source: synthetic peptide; bought: GL Biochem, Shanghai

How the values were obtained:
[1] = test system: Escherichia coli ATCC 25922 (EC); format: cell-based; details: ATCC 25922, 18 h
Experimental: (§1) Antibacterial activities of the VF16QK and VF16QK^Ser peptides (GL Biochem, Shanghai, China) were determined using the broth dilution method. Bacterial strains of Escherichia coli ATCC 25922 (EC); Salmonella enterica ATCC 14028 (SE); Klebsiella pneumoniae ATCC 13883 (KP); Acinetobacter baumannii ATCC BAA-1798 (AB) Streptococcus pyogenes ATCC 19615 (SP) and Enterococcus faecalis ATCC 29212 (EF) were used for this study.
(§2) Typically, overnight cultures of bacterial cells were grown to mid-log phase and diluted in 2X Mueller Hinton (MH) broth (Millipore-Sigma^TM, Saint Louis, MO, USA) to a final OD600 of 0.002. In a 96-well plate, 100 μL of the diluted bacterial solutions and 100 μL of the VF16QK and VF16QK^Ser peptides in concentrations ranging from 0.5 μM to 8 μM were incubated at 37 °C for 18 h.

[2] = test system: Klebsiella pneumoniae ATCC 13883 (KP); format: cell-based; details: ATCC 13883, 18 h
Experimental: as §1, §2

[3] = test system: Streptococcus pyogenes ATCC 19615 (SP); format: cell-based; details: ATCC 19615, 18 h
Experimental: as §1, §2

[4] = test system: ATCC strains of E. coli, K. pneumoniae, S. enterica, S. pyogenes and E. faecalis; format: cell-based; details: 18 h
Experimental: as §1, §2

[5] = test system: Enterococcus faecalis ATCC 29212 (EF); format: cell-based; details: ATCC 29212, 18 h
Experimental: as §1, §2

E. coli cells = test: Zeta potential measurements (surface charge neutralization); format: cell-based; details: 10 mM sodium phosphate pH 7, peptide up to 32 μM, three replicates, in words
Experimental: (§3) Figure 1 (A) Fluorescence emission spectra of NPN as a function of concentrations of the VF16QK and VF16QK^ser peptides in E. coli cell solutions. 10 μM of fluorescence probes were prepared in 10 mM of sodium phosphate buffer with a fixed bacterial cell density of 0.5. Fluorescence spectra were recorded with an excitation wavelength of 350 nm and emission of 390–450 nm. (B) Plot showing z potential changes of E. coli cells as a function of concentrations, 2 to 32 μM, of the VF16QK and VF16QK peptides.
Zeta potential measurements were performed in a Zeta Sizer Nano ZS (Malvern Instruments, Worcestershire, UK) instrument equipped with a 633 nm He laser. Mid-log phase E. coli cultures were centrifuged at 5000 rpm for 10 min and prepared in 10 mM of sodium phosphate buffer, pH 7. Z potential values of bacterial cell suspension were obtained from 1 to 32 μM of the peptides in zeta cells with gold electrodes. For individual measurement, 100 runs were carried out and three replicates were performed.

[6] = molecular target: T2, LptAm, the periplasmic LPS transport protein of E. coli (Escherichia coli, UniProt P0ADV1); test: Isothermal titration calorimetry (ITC) with LptAm; format: binding; details: in words
T2 construct: His-tagged LptAm (residues 28–159) of E. coli; His-tag; made in house; host or cells: E. coli BL21
Experimental: Figure 2 Isothermal titration calorimetry (ITC) of binding interactions of VF16QK with (A) LptAm, the periplasmic LPS transport protein of E. coli, and (B) the LPS-outer membrane. LptAm-peptide ITC studies were carried out in 50 mM of sodium phosphate buffer and 150 mM of NaCl at pH 7.0 and 25 °C. LptAm proteins in sample cells were titrated with 2 μL aliquots of peptides and the heat exchange was measured. For LPS–peptide interactions, LPS in sample cells were titrated with 2 μL aliquots of peptides in 10 mM of sodium phosphate buffer, pH 7.0, 37 °C.
The binding interactions of the thanatin peptides VF16QK and VF16QK^Ser with the LPS-outer membrane and LptAm were determined using ITC. LPS and peptide samples were prepared in 10 mM of sodium phosphate buffer, pH 7.0. Typically, twenty injections, or 2.0 μL of peptides (1 mM in syringe), were titrated into the sample cell containing LPS ([…]) at 37 °C with a stirring speed of 750 rpm. […] ITC data were analyzed following single site binding in Microcal origin 5.0 software to determine the association constant (Ka) and change of enthalpy (ΔH). The dissociation constant (Kd), change of free energy (ΔG) and change of entropy (TΔS) were calculated as: Kd = 1/Ka, ΔG = ΔH − TΔS, respectively. […]

[7] = test system: LPS-outer membrane of E. coli cells; test: Outer membrane permeabilization assay (NPN fluorescence); format: cell-based; details: E. coli cells OD600 ~0.5, 10 mM sodium phosphate, peptide 1 to 16 µM, excitation 350 nm, emission 390–450 nm; in words
Experimental: as §3
VF16QK and VF16QK^Ser were assessed for their ability to permeabilize the LPS-outer membrane of E. coli cells by use of the fluorescence probe 1-N-phenylnapthylamine (NPN). Bacterial cells were prepared from a mid-log culture in 10 mM of sodium phosphate with an adjusted OD600 ~ 0.5. A basal fluorescence of […] NPN in bacterial suspension, in absence of peptide, was measured followed by sequential additions of peptides from 1 to 16 µM. Fluorescence experiments were conducted in a Cary Eclipse spectrophotometer (Varian, Palo Alto, CA, USA) using a 0.1 cm quartz cuvette. An excitation wavelength of 350 nm and emission was recorded from 390–450 nm.

[8] = molecular target: T1, LptAm, truncated functional deletion …; test: ITC; peptide (250 uM in syringe, 20 injections of 2 uL) titrated into LptAm in the sample cell (25 mM [sic]); 50 mM sodium phosphate, 150 mM NaCl, pH 7.0, 25 °C; single site binding fit; details: both partners purified

Molecule	MIC, EC [1] [µM]	MIC, KP [2] [µM]	MIC, SP [3] [µM]	MIC values over Gram-negative and Gram-positive bacterial strains [4] [µM]	MIC, EF [5] [µM]	neutralization of surface charge (zeta potential) (E. coli cells)	nature of binding to LptAm (heat of exchange) [6]	NPN fluorescence emission (LPS-outer membrane permeabilization) [7]	Kd [8] [nM]	dH [8] [kcal/mol]
CC[C@H](C)[C@H](NC(=O)[C@@H](NC(=O)[C@@H]1CCCN1C(=O)[C@@H](N)C(C)C)[C@@H](C)CC)C(=O)N[C@@H](Cc1ccc(O)cc1)C(=O)N[C@H]1CSSC[C@@H](C(=O)N[C@@H](CCCCN)C(=O)N[C@@H](CCCNC(=N)N)C(=O)N[C@@H](Cc2ccccc2)C(N)=O)NC(=O)[C@H](CCCCN)NC(=O)[C@@H](CCCCN)NC(=O)[C@H]([C@@H](C)O)NC(=O)[C@H](CCCNC(=N)N)NC(=O)[C@H](CCCNC(=N)N)NC(=O)[C@H](CC(N)=O)NC1=O [VF16QK] (HELM PEPTIDE1{V.P.I.I.Y.C.N.R.R.T.[dK].K.C.K.R.F.[am]}$PEPTIDE1,PEPTIDE1,6:R3-13:R3$$$V2.0)	1 to 4	1 to 2	1 (≈ 2.02 µg/mL)	1 to 4	1 (≈ 2.02 µg/mL)					
CC[C@H](C)[C@H](NC(=O)[C@@H](NC(=O)[C@@H]1CCCN1C(=O)[C@@H](N)C(C)C)[C@@H](C)CC)C(=O)N[C@@H](Cc1ccc(O)cc1)C(=O)N[C@@H](CO)C(=O)N[C@@H](CC(N)=O)C(=O)N[C@@H](CCCNC(=N)N)C(=O)N[C@@H](CCCNC(=N)N)C(=O)N[C@H](C(=O)N[C@H](CCCCN)C(=O)N[C@@H](CCCCN)C(=O)N[C@@H](CO)C(=O)N[C@@H](CCCCN)C(=O)N[C@@H](CCCNC(=N)N)C(=O)N[C@@H](Cc1ccccc1)C(N)=O)[C@@H](C)O [VF16QK^Ser] (HELM PEPTIDE1{V.P.I.I.Y.S.N.R.R.T.[dK].K.S.K.R.F.[am]}$$$$V2.0; N-terminus and C-terminus assumed)				> 16		less effective	endothermic binding	significantly diminished LPS-outer membrane permeabilization		
B1									400	-10.2
